For 18 compounds, EC50 results are on record in patent publication US20240043404A1 (AbbVie Inc., priority 2009, published 2024).

The first assay has as its system RS4;11 cells. The assay can be described thus: RS4;11 cell viability assay (CellTiter Glo).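 Note: acute lymphoblastic leukemia line RS4,11, EC50 derived from percentage of viable cells after treatment relative to untreated controls, cell killing taken as a measure of Bcl-2 inhibition.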 Format: cell-based, human. As to conditions: Homo sapiens, RS4-11, 48 h, 50,000 cells per well, 10% human serum, 48 hours; read-out: RS4; 11 EC50 Values. (Cellular ATP, detected with luciferase, serves as a proxy for viable cell number.)
Method: The acute lymphoblastic leukemia (ALL) cell line RS4;11 was used as the primary human cell line to assess the cellular activity of Bcl-2 selective agents in vitro and their efficacy in vivo.
Cell cytotoxicity EC50 values were assessed using CellTiter Glo (Promega) according to the manufacturer's recommendations. The EC50 values were determined as a percentage of viable cells following treatment compared to the untreated control cells.
On to `CC1(C)CCC(CN2CCN(c3ccc(C(=O)NS(=O)(=O)c4cc(F)c(NCC5CCOCC5)cc4Cl)c(Oc4cnc5[nH]ccc5c4)c3)CC2)=C(c2ccc(Cl)cc2)C1` [Example 54, N-({2-chloro-5-fluoro-4-[(tetrahydro-2H-pyran-4-ylmethyl)amino]phenyl}sulfonyl)-4-(4-{[2-(4-chlorophenyl)-4,4-dimethylcyclohex-1-en-1-yl]methyl}piperazin-1-yl)-2-(1H-pyrrolo[2,3-b]pyridin-5-yloxy)benzamide], for which the EC50 turned out to be 1920 nM.
Regarding `CN(C)CC(=O)N1CCOC(CNc2ccc(S(=O)(=O)NC(=O)c3ccc(N4CCN(CC5=C(c6ccc(Cl)cc6)CC(C)(C)CC5)CC4)cc3Oc3cnc4[nH]ccc4c3)cc2[N+](=O)[O-])C1` (stereo not shown) [Example 215, 4-(4-{[2-(4-chlorophenyl)-4,4-dimethylcyclohex-1-en-1-yl]methyl}piperazin-1-yl)-N-{[4-({[4-(N,N-dimethylglycyl)morpholin-2-yl]methyl}amino)-3-nitrophenyl]sulfonyl}-2-(1H-pyrrolo[2,3-b]pyridin-5-yloxy)benzamide], the EC50 worked out at 0.56 nM.
Still for that read-out and setting: under `CC1(C)CCC(CN2CCN(c3ccc(C(=O)NS(=O)(=O)c4cnc(OCC5CCOCC5)c(C(N)=O)c4)c(Oc4cnc5[nH]ccc5c4)c3)CC2)=C(c2ccc(Cl)cc2)C1` [Example 46, 5-({[4-(4-{[2-(4-chlorophenyl)-4,4-dimethylcyclohex-1-en-1-yl]methyl}piperazin-1-yl)-2-(1H-pyrrolo[2,3-b]pyridin-5-yloxy)benzoyl]amino}sulfonyl)-2-(tetrahydro-2H-pyran-4-ylmethoxy)nicotinamide] stands > 5000 nM; under `COCCOCCN1CCOC(CNc2ccc(S(=O)(=O)NC(=O)c3ccc(N4CCN(CC5=C(c6ccc(Cl)cc6)CC(C)(C)CC5)CC4)cc3Oc3cnc4[nH]ccc4c3)cc2[N+](=O)[O-])C1` (stereo not shown) [Example 213, 4-(4-{[2-(4-chlorophenyl)-4,4-dimethylcyclohex-1-en-1-yl]methyl}piperazin-1-yl)-N-({4-[({4-[2-(2-methoxyethoxy)ethyl]morpholin-2-yl}methyl)amino]-3-nitrophenyl}sulfonyl)-2-(1H-pyrrolo[2,3-b]pyridin-5-yloxy)benzamide], 6.1 nM; under `CC1(C)CCC(CN2CCN(c3ccc(C(=O)NS(=O)(=O)c4ccc(N[C@H]5CC[C@H](N(CC6CC6)CC6CC6)CC5)c([N+](=O)[O-])c4)c(Oc4cnc5[nH]ccc5c4)c3)CC2)=C(c2ccc(Cl)cc2)C1` [Example 64, Trans-N-{[4-({4-[bis(cyclopropylmethyl)amino]cyclohexyl}amino)-3-nitrophenyl]sulfonyl}-4-(4-{[2-(4-chlorophenyl)-4,4-dimethylcyclohex-1-en-1-yl]methyl}piperazin-1-yl)-2-(1H-pyrrolo[2,3-b]pyridin-5-yloxy)benzamide], 0.25 nM.
Consider `CC1(C)CCC(CN2CCN(c3ccc(C(=O)NS(=O)(=O)c4ccc5nc[nH]c(=O)c5c4)c(Oc4cnc5[nH]ccc5c4)c3)CC2)=C(c2ccc(Cl)cc2)C1` [Example 70, 4-(4-{[2-(4-chlorophenyl)-4,4-dimethylcyclohex-1-en-1-yl]methyl}piperazin-1-yl)-N-[(4-oxo-3,4-dihydroquinazolin-6-yl)sulfonyl]-2-(1H-pyrrolo[2,3-b]pyridin-5-yloxy)benzamide], for which the EC50 is > 5000 nM.
Same read-out and setting: as for `COCCNc1ccc(S(=O)(=O)NC(=O)c2ccc(N3CCN(CC4=C(c5ccc(Cl)cc5)CC(C)(C)CC4)CC3)cc2Oc2ccc3[nH]ccc3c2)cc1S(=O)(=O)C(F)(F)F` [Example 93, 4-(4-{[2-(4-chlorophenyl)-4,4-dimethylcyclohex-1-en-1-yl]methyl}piperazin-1-yl)-2-(1H-indol-5-yloxy)-N-({4-[(2-methoxyethyl)amino]-3-[(trifluoromethyl)sulfonyl]phenyl}sulfonyl)benzamide], the figure is > 5000 nM; as for `COCCOCCS(=O)(=O)c1ccc(S(=O)(=O)NC(=O)c2ccc(N3CCN(CC4=C(c5ccc(Cl)cc5)CC(C)(C)CC4)CC3)cc2Oc2cnc3[nH]ccc3c2)cc1[N+](=O)[O-]` [Example 59, 4-(4-{[2-(4-chlorophenyl)-4,4-dimethylcyclohex-1-en-1-yl]methyl}piperazin-1-yl)-N-[(4-{[2-(2-methoxyethoxy)ethyl]sulfonyl}-3-nitrophenyl)sulfonyl]-2-(1H-pyrrolo[2,3-b]pyridin-5-yloxy)benzamide], 722 nM.
On to `CC1(C)CCC(CN2CCN(c3ccc(C(=O)NS(=O)(=O)c4ccc(OCC5(F)CCN(C6CCOC6)CC5)c([N+](=O)[O-])c4)c(Oc4cnc5[nH]ccc5c4)c3)CC2)=C(c2ccc(Cl)cc2)C1` (stereo not shown) [Example 193, 4-(4-{[2-(4-chlorophenyl)-4,4-dimethylcyclohex-1-en-1-yl]methyl}piperazin-1-yl)-N-({4-[(4-fluoro-1-tetrahydrofuran-3-ylpiperidin-4-yl)methoxy]-3-nitrophenyl}sulfonyl)-2-(1H-pyrrolo[2,3-b]pyridin-5-yloxy)benzamide], for which the EC50 turned out to be 0.76 nM.
On the same count and under the same terms, as for `CC1(C)CCC(CN2CCN(c3ccc(C(=O)NS(=O)(=O)c4ccc(NCC5CCN(C6COC6)CC5)c([N+](=O)[O-])c4)c(Oc4cnc5[nH]ccc5c4)c3)CC2)=C(c2ccc(Cl)cc2)C1` [Example 163, 4-(4-{[2-(4-chlorophenyl)-4,4-dimethylcyclohex-1-en-1-yl]methyl}piperazin-1-yl)-N-[(3-nitro-4-{[(1-oxetan-3-ylpiperidin-4-yl)methyl]amino}phenyl)sulfonyl]-2-(1H-pyrrolo[2,3-b]pyridin-5-yloxy)benzamide], the figure is 4.32 nM; as for `CC1(C)CCC(CN2CCN(c3ccc(C(=O)NS(=O)(=O)c4ccc(NCC5COCCN5)c([N+](=O)[O-])c4)c(Oc4cnc5[nH]ccc5c4)c3)CC2)=C(c2ccc(Cl)cc2)C1` (stereo not shown) [Example 66, 4-(4-{[2-(4-chlorophenyl)-4,4-dimethylcyclohex-1-en-1-yl]methyl}piperazin-1-yl)-N-({4-[(morpholin-3-ylmethyl)amino]-3-nitrophenyl}sulfonyl)-2-(1H-pyrrolo[2,3-b]pyridin-5-yloxy)benzamide], 18.9 nM.
For `CC1(C)CCC(CN2CCN(c3ccc(C(=O)NS(=O)(=O)c4ccc(NCC5CCOCC5)c(S(F)(F)(F)(F)F)c4)c(Oc4cnc5[nH]ccc5c4)c3)CC2)=C(c2ccc(Cl)cc2)C1` [Example 233, 4-(4-{[2-(4-chlorophenyl)-4,4-dimethylcyclohex-1-en-1-yl]methyl}piperazin-1-yl)-N-({3-(pentafluoro-lambda˜6˜-sulfanyl)-4-[(tetrahydro-2H-pyran-4-ylmethyl)amino]phenyl}sulfonyl)-2-(1H-pyrrolo[2,3-b]pyridin-5-yloxy)benzamide], the EC50 is > 1000 nM.
Still for that read-out and setting: as for `CC1(C)CCC(CN2CCN(c3ccc(C(=O)NS(=O)(=O)c4ccc(NC5CN(C(CF)CF)C5)c([N+](=O)[O-])c4)c(Oc4cnc5[nH]ccc5c4)c3)CC2)=C(c2ccc(Cl)cc2)C1` [Example 151, 4-(4-{[2-(4-chlorophenyl)-4,4-dimethylcyclohex-1-en-1-yl]methyl}piperazin-1-yl)-N-{[4-({1-[2-fluoro-1-(fluoromethyl)ethyl]azetidin-3-yl}amino)-3-nitrophenyl]sulfonyl}-2-(1H-pyrrolo[2,3-b]pyridin-5-yloxy)benzamide], the figure is 33.7 nM; as for `CCN1CCOCC1COc1ccc(S(=O)(=O)NC(=O)c2ccc(N3CCN(CC4=C(c5ccc(Cl)cc5)CC(C)(C)CC4)CC3)cc2Oc2cnc3[nH]ccc3c2)cc1[N+](=O)[O-]` (stereo not shown) [Example 103, 4-(4-{[2-(4-chlorophenyl)-4,4-dimethylcyclohex-1-en-1-yl]methyl}piperazin-1-yl)-N-({4-[(4-ethylmorpholin-3-yl)methoxy]-3-nitrophenyl}sulfonyl)-2-(1H-pyrrolo[2,3-b]pyridin-5-yloxy)benzamide], 39.2 nM.
As to `O=C(NS(=O)(=O)c1ccc(OCC2(F)CCOCC2)c(Cl)c1)c1ccc(N2CCN(CC3=C(c4ccc(Cl)cc4)CCC4(CCN(C5COC5)CC4)C3)CC2)cc1Oc1cnc2[nH]ccc2c1` [Example 325, N-({3-chloro-4-[(4-fluorotetrahydro-2H-pyran-4-yl)methoxy]phenyl}sulfonyl)-4-(4-{[9-(4-chlorophenyl)-3-(oxetan-3-yl)-3-azaspiro[5.5]undec-8-en-8-yl]methyl}piperazin-1-yl)-2-(1H-pyrrolo[2,3-b]pyridin-5-yloxy)benzamide], the EC50 is 12.3 nM.
The same measure, in the same setting: under `CC1(C)CCC(CN2CCN(c3ccc(C(=O)NS(=O)(=O)c4ccc(NCCCN(C5CCC5)C5CC5)c([N+](=O)[O-])c4)c(Oc4cnc5[nH]ccc5c4)c3)CC2)=C(c2ccc(Cl)cc2)C1` [Example 320, 4-(4-{[2-(4-chlorophenyl)-4,4-dimethylcyclohex-1-en-1-yl]methyl}piperazin-1-yl)-N-{[4-({3-[cyclobutyl(cyclopropyl)amino]propyl}amino)-3-nitrophenyl]sulfonyl}-2-(1H-pyrrolo[2,3-b]pyridin-5-yloxy)benzamide] stands 51 nM; under `CC1(C)CCC(CN2CCN(c3ccc(C(=O)NS(=O)(=O)c4ccc(NC[C@@H]5CN(C6CC6)CCO5)c([N+](=O)[O-])c4)c(Oc4cnc5[nH]ccc5c4)c3)CC2)=C(c2ccc(Cl)cc2)C1` [Example 326, 4-(4-{[2-(4-chlorophenyl)-4,4-dimethylcyclohex-1-en-1-yl]methyl}piperazin-1-yl)-N-{[4-({[(2R)-4-cyclopropylmorpholin-2-yl]methyl}amino)-3-nitrophenyl]sulfonyl}-2-(1H-pyrrolo[2,3-b]pyridin-5-yloxy)benzamide], 23.1 nM.
Same read-out and setting: under `CN1CCC(COc2ncc(S(=O)(=O)NC(=O)c3ccc(N4CCN(CC5=C(c6ccc(Cl)cc6)CC(C)(C)CC5)CC4)cc3Oc3cnc4[nH]ccc4c3)cc2Br)CC1` [Example 47, N-({5-bromo-6-[(1-methylpiperidin-4-yl)methoxy]pyridin-3-yl}sulfonyl)-4-(4-{[2-(4-chlorophenyl)-4,4-dimethylcyclohex-1-en-1-yl]methyl}piperazin-1-yl)-2-(1H-pyrrolo[2,3-b]pyridin-5-yloxy)benzamide] stands 32.6 nM.

Staying with this assay, now noted: Homo sapiens, RS4-11, Table 5, direct comparison Z=N with corresponding analogs Z=C; read-out: RS4; 11 EC50.
As for `COCCNc1ccc(S(=O)(=O)NC(=O)c2ccc(N3CCN(CC4=C(c5ccc(Cl)cc5)CC(C)(C)CC4)CC3)cc2Oc2ccc3[nH]ccc3c2)cc1S(=O)(=O)C(F)(F)F` [Example 93, 4-(4-{[2-(4-chlorophenyl)-4,4-dimethylcyclohex-1-en-1-yl]methyl}piperazin-1-yl)-2-(1H-indol-5-yloxy)-N-({4-[(2-methoxyethyl)amino]-3-[(trifluoromethyl)sulfonyl]phenyl}sulfonyl)benzamide], the EC50 was > 5000 nM.
